Tested on: 299254-011-R-J1-PDC complex spheroid viability
Assay: Anticancer human tumor 299254-011-R-J1-PDC patient-derived melanoma cell line growth inhibition [POLQ]
Settings: for IC50: curve of first compound; for viability, T/C: stronger effect = lower value
How it was run: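 Three-cell-type spheroids modelling solid tumor plus stroma served as the readout system; POL inhibitors were tested individually and in combination, concentration ranges set by clinical Cmax where known.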

[1] = second compound 0.0316 µM, first compound 0.0316 µM
[2] = second compound 0.0316 µM, first compound 0.1 µM
[3] = second compound 0.0316 µM, first compound 0.316 µM
[4] = second compound 0.0316 µM, first compound 1 µM
[5] = second compound 0.0316 µM, first compound 3.16 µM
[6] = second compound 0.0316 µM, first compound 10 µM
[7] = second compound 0.1 µM, first compound 0.0316 µM
[8] = second compound 0.1 µM, first compound 0.1 µM
[9] = second compound 0.1 µM, first compound 0.316 µM
[10] = second compound 0.1 µM, first compound 1 µM
[11] = second compound 0.1 µM, first compound 3.16 µM
[12] = second compound 0.1 µM, first compound 10 µM
[13] = second compound 0.316 µM, first compound 0.0316 µM
[14] = second compound 0.316 µM, first compound 0.1 µM
[15] = second compound 0.316 µM, first compound 0.316 µM
[16] = second compound 0.316 µM, first compound 1 µM
[17] = second compound 0.316 µM, first compound 3.16 µM
[18] = second compound 0.316 µM, first compound 10 µM
[19] = second compound 1 µM, first compound 0.0316 µM
[20] = second compound 1 µM, first compound 0.1 µM
[21] = second compound 1 µM, first compound 0.316 µM
[22] = second compound 1 µM, first compound 1 µM
[23] = second compound 1 µM, first compound 3.16 µM
[24] = second compound 1 µM, first compound 10 µM
[25] = second compound 3.16 µM, first compound 0.0316 µM
[26] = second compound 3.16 µM, first compound 0.1 µM
[27] = second compound 3.16 µM, first compound 0.316 µM
[28] = second compound 3.16 µM, first compound 1 µM
[29] = second compound 3.16 µM, first compound 3.16 µM
[30] = second compound 3.16 µM, first compound 10 µM
[31] = second compound 10 µM, first compound 0.0316 µM
[32] = second compound 10 µM, first compound 0.1 µM
[33] = second compound 10 µM, first compound 0.316 µM
[34] = second compound 10 µM, first compound 1 µM
[35] = second compound 10 µM, first compound 3.16 µM
[36] = second compound 10 µM, first compound 10 µM
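Note: spheroids exposed to drugs for one week before measurement.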
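Throughout, for viability, T/C: percent viability relative to DMSO vehicle control taken as 100%.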

What does the source list for `C#Cc1c(F)ccc2cc(O)cc(-c3ncc4c(N5CC6CCC(C5)N6)nc(OCC56CCCN5CC(F)C6)nc4c3F)c12` (stereo unspecified) + COC1C(OC(N)=O)C(O)C(Oc2ccc3c(O)c(NC(=O)c4ccc(O)c(CC=C(C)C)c4)c(=O)oc3c2C)OC1(C)C?
IC50 (second compound 0.0316 µM): > 10 µM; IC50 (second compound 0.1 µM): > 10 µM; IC50 (second compound 0.316 µM): > 10 µM; IC50 (second compound 1 µM): > 10 µM; IC50 (second compound 3.16 µM): > 10 µM; IC50 (second compound 10 µM): > 10 µM; viability, T/C [1]: 87.2%; viability, T/C [2]: 125%; viability, T/C [3]: 105%; viability, T/C [4]: 115%; viability, T/C [5]: 96.4%; viability, T/C [6]: 79.7%; viability, T/C [7]: 102%; viability, T/C [8]: 99.2%; viability, T/C [9]: 99.2%; viability, T/C [10]: 114%; viability, T/C [11]: 94.8%; viability, T/C [12]: 80.9%; viability, T/C [13]: 110%; viability, T/C [14]: 104%; viability, T/C [15]: 107%; viability, T/C [16]: 114%; viability, T/C [17]: 105%; viability, T/C [18]: 72.7%; viability, T/C [19]: 104%; viability, T/C [20]: 98.2%; viability, T/C [21]: 105%; viability, T/C [22]: 136%; viability, T/C [23]: 102%; viability, T/C [24]: 79.4%; viability, T/C [25]: 114%; viability, T/C [26]: 109%; viability, T/C [27]: 106%; viability, T/C [28]: 109%; viability, T/C [29]: 101%; viability, T/C [30]: 70.6%; viability, T/C [31]: 93.9%; viability, T/C [32]: 99.7%; viability, T/C [33]: 111%; viability, T/C [34]: 101%; viability, T/C [35]: 111%; viability, T/C [36]: 69.2%

What does the source list for `C=CC(=O)N1CCN(c2nc(=O)n(-c3c(C)ccnc3C(C)C)c3nc(-c4c(O)cccc4F)c(F)cc23)C(C)C1` (stereo unspecified) + COC1C(OC(N)=O)C(O)C(Oc2ccc3c(O)c(NC(=O)c4ccc(O)c(CC=C(C)C)c4)c(=O)oc3c2C)OC1(C)C?
IC50 (second compound 0.0316 µM): > 10 µM; IC50 (second compound 0.1 µM): > 10 µM; IC50 (second compound 0.316 µM): > 10 µM; IC50 (second compound 1 µM): > 10 µM; IC50 (second compound 3.16 µM): > 10 µM; IC50 (second compound 10 µM): > 10 µM; viability, T/C [1]: 75.8%; viability, T/C [2]: 72.7%; viability, T/C [3]: 64.3%; viability, T/C [4]: 66.3%; viability, T/C [5]: 69%; viability, T/C [6]: 65.1%; viability, T/C [7]: 73.9%; viability, T/C [8]: 69.6%; viability, T/C [9]: 64.8%; viability, T/C [10]: 63.1%; viability, T/C [11]: 59.4%; viability, T/C [12]: 73.4%; viability, T/C [13]: 91.4%; viability, T/C [14]: 75.5%; viability, T/C [15]: 69.7%; viability, T/C [16]: 66.6%; viability, T/C [17]: 70.4%; viability, T/C [18]: 54.2%; viability, T/C [19]: 83.5%; viability, T/C [20]: 70.7%; viability, T/C [21]: 60.7%; viability, T/C [22]: 73.3%; viability, T/C [23]: 66.1%; viability, T/C [24]: 70.3%; viability, T/C [25]: 77.1%; viability, T/C [26]: 65.5%; viability, T/C [27]: 62.3%; viability, T/C [28]: 64.7%; viability, T/C [29]: 69.3%; viability, T/C [30]: 60.1%; viability, T/C [31]: 82.9%; viability, T/C [32]: 74.5%; viability, T/C [33]: 63.5%; viability, T/C [34]: 58.7%; viability, T/C [35]: 62.5%; viability, T/C [36]: 56.8%

How did the IC50 (second compound 0.0316 µM) turn out when `CCc1cc2c(N3CCc4c(cc(Cn5ccnc5)cc4-c4cn(C)nc4C(F)(F)F)C3=O)cc(C)nc2c(OC)n1` + COC1C(OC(N)=O)C(O)C(Oc2ccc3c(O)c(NC(=O)c4ccc(O)c(CC=C(C)C)c4)c(=O)oc3c2C)OC1(C)C was run?
The IC50 was > 10 µM.

And the IC50 (second compound 0.1 µM)?
Its IC50 is > 10 µM.

What about the IC50 (second compound 0.316 µM) of the same compound?
Its IC50 is > 10 µM.

And the IC50 (second compound 1 µM)?
Its IC50 is > 10 µM.

What about the IC50 (second compound 3.16 µM) of the same compound?
The IC50 was > 10 µM.

What about the IC50 (second compound 10 µM) of the same compound?
Its IC50 is > 10 µM.

What about the viability, T/C [1] of the same compound?
The viability, T/C was 96.8%.

What about the viability, T/C [2] of the same compound?
Its viability, T/C is 96.1%.

What about the viability, T/C [3] of the same compound?
Its viability, T/C is 109%.

And the viability, T/C [4]?
Its viability, T/C is 81.1%.

And the viability, T/C [5]?
The viability, T/C was 91.5%.

What about the viability, T/C [6] of the same compound?
The viability, T/C was 69.5%.

What about the viability, T/C [7] of the same compound?
The viability, T/C was 99.8%.

And the viability, T/C [8]?
Its viability, T/C is 95.3%.

And the viability, T/C [9]?
Its viability, T/C is 104%.

And the viability, T/C [10]?
Its viability, T/C is 108%.

And the viability, T/C [11]?
Its viability, T/C is 107%.

And the viability, T/C [12]?
Its viability, T/C is 63.9%.

And the viability, T/C [13]?
The viability, T/C was 107%.

And the viability, T/C [14]?
Its viability, T/C is 121%.

And the viability, T/C [15]?
Its viability, T/C is 103%.

What about the viability, T/C [16] of the same compound?
Its viability, T/C is 106%.

And the viability, T/C [17]?
The viability, T/C was 88.4%.

What about the viability, T/C [18] of the same compound?
Its viability, T/C is 66.8%.

What about the viability, T/C [19] of the same compound?
Its viability, T/C is 116%.

And the viability, T/C [20]?
The viability, T/C was 110%.

And the viability, T/C [21]?
Its viability, T/C is 114%.

And the viability, T/C [22]?
Its viability, T/C is 99.6%.

And the viability, T/C [23]?
Its viability, T/C is 94.5%.

What about the viability, T/C [24] of the same compound?
Its viability, T/C is 67.4%.

What about the viability, T/C [25] of the same compound?
Its viability, T/C is 106%.

And the viability, T/C [26]?
Its viability, T/C is 107%.

And the viability, T/C [27]?
Its viability, T/C is 100%.

And the viability, T/C [28]?
Its viability, T/C is 106%.

What about the viability, T/C [29] of the same compound?
The viability, T/C was 99.2%.

What about the viability, T/C [30] of the same compound?
Its viability, T/C is 70.6%.

What about the viability, T/C [31] of the same compound?
Its viability, T/C is 96.3%.

What about the viability, T/C [32] of the same compound?
The viability, T/C was 105%.

And the viability, T/C [33]?
Its viability, T/C is 110%.

What about the viability, T/C [34] of the same compound?
Its viability, T/C is 106%.

What about the viability, T/C [35] of the same compound?
The viability, T/C was 93.5%.

And the viability, T/C [36]?
Its viability, T/C is 73.9%.
